Active and inactive are the calls of the source. The calls are words filed in the database; no cut-off is given here.
Columns and labels:
[1] = Terminal half life in Sprague-Dawley rat at 2 mg/kg, iv administered as single dose by LC-MS analysis; type: ADME, organism-based; conditions: in vivo, read-out: beta t1/2 (converted)
[2] = Volume of distribution at steady state in Sprague-Dawley rat at 2 mg/kg, iv administered as single dose by LC-MS analysis; type: ADME, organism-based; conditions: in vivo, read-out: Vdss
[3] = Permeability of the compound at 50 uM after 24 hrs at pH 7.4 by PAMPA; type: ADME; conditions: read-out: permeability
[4] = Total clearance in Sprague-Dawley rat at 2 mg/kg, iv administered as single dose by LC-MS analysis; type: ADME, organism-based; conditions: in vivo
Rattus norvegicus [5] = assay: Hypoglycemic effect in Sprague-Dawley rat assessed as reduction in blood glucose AUC (0 to 2 hrs) at 0.3 mg/kg, po pretreated followed by glucose challenge by OGTT relative to control; type: functional; set-up: scale not given: the % may be the effect or the level left
[6] = target: T1, Sodium/glucose cotransporter 2 (Homo sapiens, UniProt P31639); assay: Inhibition of human SGLT2 expressed in CHOK1 cells assessed as reduction in Na-dependent [14C]-methyl-alpha-D-glucopyranoside uptake after 1 hr by microbeta counting method; type: cell-based
T1 sequence (P31639 whole entry): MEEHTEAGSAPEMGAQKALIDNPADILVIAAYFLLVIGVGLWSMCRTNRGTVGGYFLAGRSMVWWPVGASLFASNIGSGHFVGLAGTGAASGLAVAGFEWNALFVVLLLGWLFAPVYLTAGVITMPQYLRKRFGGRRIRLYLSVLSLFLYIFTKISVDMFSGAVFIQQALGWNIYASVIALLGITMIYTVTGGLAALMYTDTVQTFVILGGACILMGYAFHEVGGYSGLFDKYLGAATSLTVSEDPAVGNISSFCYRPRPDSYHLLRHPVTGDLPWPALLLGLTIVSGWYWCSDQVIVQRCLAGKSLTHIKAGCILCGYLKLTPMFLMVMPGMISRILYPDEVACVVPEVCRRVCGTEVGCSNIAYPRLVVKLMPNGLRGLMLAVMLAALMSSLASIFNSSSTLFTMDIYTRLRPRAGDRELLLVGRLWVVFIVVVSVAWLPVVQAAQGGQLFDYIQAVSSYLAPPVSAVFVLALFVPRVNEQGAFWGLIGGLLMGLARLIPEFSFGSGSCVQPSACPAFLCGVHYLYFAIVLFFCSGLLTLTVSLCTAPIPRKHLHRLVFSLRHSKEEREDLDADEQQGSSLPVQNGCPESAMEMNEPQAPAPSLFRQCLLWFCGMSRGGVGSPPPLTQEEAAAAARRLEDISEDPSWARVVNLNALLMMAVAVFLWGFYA

Rattus norvegicus [7] = assay: Hypoglycemic effect in Sprague-Dawley rat assessed as reduction in blood glucose AUC (0 to 2 hrs) at 1 mg/kg, po pretreated followed by glucose challenge by OGTT relative to control; type: functional; set-up: scale not given: the % may be the effect or the level left
[8] = Oral bioavailability in Sprague-Dawley rat at 1 mg/kg administered as single dose by LC-MS analysis; type: ADME, organism-based; conditions: in vivo
Rattus norvegicus [9] = assay: Hypoglycemic effect in Sprague-Dawley rat assessed as reduction in blood glucose AUC (0 to 2 hrs) pretreated orally followed by glucose challenge by OGTT; type: functional, organism-based
Rattus norvegicus [10] = assay: Hypoglycemic effect in Sprague-Dawley rat assessed as reduction in blood glucose AUC (0 to 2 hrs) at 0.1 mg/kg, po pretreated followed by glucose challenge by OGTT relative to control; type: functional; set-up: scale not given: the % may be the effect or the level left
[11] = target: T2, Sodium/glucose cotransporter 1 (Homo sapiens, UniProt P13866); assay: Inhibition of human SGLT1 expressed in CHOK1 cells assessed as reduction in Na-dependent [14C]-methyl-alpha-D-glucopyranoside uptake after 30 mins by microbeta counting method; type: cell-based
T2 sequence (P13866 whole entry): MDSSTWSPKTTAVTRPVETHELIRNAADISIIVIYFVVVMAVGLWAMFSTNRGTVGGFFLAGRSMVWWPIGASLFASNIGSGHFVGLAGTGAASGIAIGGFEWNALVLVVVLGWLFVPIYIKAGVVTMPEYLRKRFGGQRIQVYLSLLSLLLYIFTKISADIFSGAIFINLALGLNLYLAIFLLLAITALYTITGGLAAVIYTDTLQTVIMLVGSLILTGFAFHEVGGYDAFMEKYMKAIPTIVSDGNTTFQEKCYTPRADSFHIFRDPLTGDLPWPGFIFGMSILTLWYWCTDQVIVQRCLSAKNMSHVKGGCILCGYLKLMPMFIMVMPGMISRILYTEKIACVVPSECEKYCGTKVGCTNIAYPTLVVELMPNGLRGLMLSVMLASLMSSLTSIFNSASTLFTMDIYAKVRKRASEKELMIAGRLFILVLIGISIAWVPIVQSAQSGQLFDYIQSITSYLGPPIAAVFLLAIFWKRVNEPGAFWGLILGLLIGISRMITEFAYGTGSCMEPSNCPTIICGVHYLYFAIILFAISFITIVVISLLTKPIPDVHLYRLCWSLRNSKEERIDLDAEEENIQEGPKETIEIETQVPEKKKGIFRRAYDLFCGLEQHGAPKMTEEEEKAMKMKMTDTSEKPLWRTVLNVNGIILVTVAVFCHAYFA

[12] = Tmax in Sprague-Dawley rat at 1 mg/kg, po administered as single dose by LC-MS analysis; type: ADME, organism-based; conditions: in vivo
[13] = Cmax in Sprague-Dawley rat at 1 mg/kg, po administered as single dose by LC-MS analysis; type: ADME, organism-based; set-up: dose 1 mg/kg, route oral; conditions: in vivo
Rattus norvegicus [14] = assay: In vivo inhibition of SGLT2 Sprague-Dawley rat assessed as increase in urinary glucose excretion at 0.1 to 0.3 mg/kg, po bid for 4 days followed by glucose challenge on day 5; type: functional, organism-based

Row | Compound | IC50 [6] [nM] | IC50 [11] [nM] | other results
1 | Cc1cc(O)c([C@@H]2O[C@H](CO)[C@@H](O)[C@H](O)[C@H]2O)cc1Cc1ccc(CCNC(=O)NC(CO)(CO)CO)cc1 | 7 | 28 | half-life [1]: 21.7 min; Vd [2]: 0.439 L/kg; Papp at 24 h, 50 µM [3]: 0.3 ×10⁻⁶ cm/s; clearance [4]: 18 mL/min/kg; Activity (Rattus norvegicus [5]): 58.5%; Activity (Rattus norvegicus [7]): 62.2%; bioavailability [8]: 0.05%; Activity (Rattus norvegicus [9]): Dose-dependent effect; Activity (Rattus norvegicus [10]): 31.5%; Tmax [12]: 15 min; Cmax [13]: 1.46 ng/mL; inhibition (Rattus norvegicus [14]): inactive
2 | CCc1ccc(Cc2cc([C@@H]3S[C@H](CO)[C@@H](O)[C@H](O)[C@H]3O)c(O)cc2C)cc1 | 2 |  | 
3 | Cc1cc(O)c([C@@H]2O[C@H](CO)[C@@H](O)[C@H](O)[C@H]2O)cc1Cc1ccc(CCCNC(=O)NC(C)(C)CO)cc1 | 5 |  | 
4 | Cc1cc(O)c([C@@H]2S[C@H](CO)[C@@H](O)[C@H](O)[C@H]2O)cc1Cc1ccc(CCCC(=O)NC(CO)(CO)CO)cc1 | 9 | 35 | 
5 | Cc1cc(O)c([C@@H]2S[C@H](CO)[C@@H](O)[C@H](O)[C@H]2O)cc1Cc1ccc(CCCC(=O)NC(C)(C)C(N)=O)cc1 | 4 | 47 | 
6 | Cc1cc(O)c([C@@H]2O[C@H](CO)[C@@H](O)[C@H](O)[C@H]2O)cc1Cc1ccc(CCNC(=O)NC(C)(C)CO)cc1 | 4 |  | 
7 | Cc1cc(O)c([C@@H]2O[C@H](CO)[C@@H](O)[C@H](O)[C@H]2O)cc1Cc1ccc(CCCNC(=O)N2CCN(C)CC2)cc1 | 5 | 764 | 
8 | Cc1cc(O)c([C@@H]2O[C@H](CO)[C@@H](O)[C@H](O)[C@H]2O)cc1Cc1ccc(CCCC(=O)NC(C)(CO)CO)cc1 |  | 32 | 
9 | Cc1cc(O)c([C@@H]2S[C@H](CO)[C@@H](O)[C@H](O)[C@H]2O)cc1Cc1ccc(OC(C)C)cc1 | 3 | 414 | 
10 | Cc1cc(O)c([C@@H]2S[C@H](CO)[C@@H](O)[C@H](O)[C@H]2O)cc1Cc1ccc(CCCC(=O)NC(C)(CO)CO)cc1 | 5 | 22 | 
11 | CCOc1ccc(Cc2cc([C@@H]3S[C@H](CO)[C@@H](O)[C@H](O)[C@H]3O)c(O)cc2C)cc1 | 3 | 162 | 
12 | COc1ccc(Cc2cc([C@@H]3S[C@H](CO)[C@@H](O)[C@H](O)[C@H]3O)c(O)cc2C)cc1 |  | 65 | 
13 | Cc1cc(O)c([C@@H]2O[C@H](CO)[C@@H](O)[C@H](O)[C@H]2O)cc1Cc1ccc(CCCNC(=O)NC(CO)(CO)CO)cc1 | 7 |  | 
14 | Cc1ccc(Cc2cc([C@@H]3S[C@H](CO)[C@@H](O)[C@H](O)[C@H]3O)c(O)cc2C)cc1 | 2 | 25 | 
15 | Cc1cc(O)c([C@@H]2O[C@H](CO)[C@@H](O)[C@H](O)[C@H]2O)cc1Cc1ccc(CCCC(=O)NC(C)(C)C(N)=O)cc1 | 7 | 51 | 
16 | Cc1cc(O)c([C@@H]2O[C@H](CO)[C@@H](O)[C@H](O)[C@H]2O)cc1Cc1ccc(CCCC(=O)NC(CO)(CO)CO)cc1 |  | 35 | 

From ChEMBL document CHEMBL4265985, “Discovery of a potent, low-absorbable sodium-dependent glucose cotransporter 1 (SGLT1) inhibitor (TP0438836) for the treatment of type 2 diabetes” (Bioorg Med Chem Lett, 2018)
